≈ marks a conversion by molar mass, not a printed value.
What was measured:
Type in all cases: cell-based
[1] = system: S. pneumoniae ATCC 51916; test: MIC, S. pneumoniae; settings: S. pneumoniae (Spn52); in µg/mL
[2] = system: E. coli 8 ATCC 25922; test: MIC, E. coli 8 (wt); settings: E. coli 8 (EC8)
[3] = system: S. aureus ATCC 13709; test: MIC, antibacterial potency, S. aureus; settings: S. aureus (SA); in µg/mL

Compound | MIC Spn52 [1] | MIC EC8 [2] | MIC, SA [3]
NC(=O)C1(N)C2CN(c3nc(Sc4cnc5nccnc5c4)nc4[nH]c(C5CC5)c(Cl)c34)CC21 (stereo not drawn) [700,975] | 8 | > 64 µg/mL | 8
NC1C2CN(c3nc(Sc4cnc5nccnc5c4)nc4[nH]c(C5CC5)c(Cl)c34)CC12 (stereo not drawn) [700,976] | 2 | 8 µg/mL (≈ 17.7 µM) | 4
N[C@@H]1CCN(c2nc(Sc3cnc4nccnc4c3)nc3[nH]c(C4CC4)c(Cl)c23)C1 [700,977] | 4 | 8 µg/mL (≈ 18.2 µM) | 16
CC(C)(C)OC(=O)N[C@@H]1CCN(c2nc(Sc3cnc4nccnc4c3)nc3[nH]c(C4CC4)c(Cl)c23)C1 [700,978] | >64 | > 64 µg/mL | >64
CCc1[nH]c2nc(Oc3ccc4nccnc4c3)nc(Oc3ccc4c(N)nc(N)nc4c3)c2c1Br [700,979] | 4 | > 64 µg/mL | <=0.5
CCc1[nH]c2nc(Oc3ccc4nccnc4c3)nc(N3CC4C(C3)C4(N)C(N)=O)c2c1Br (stereo not drawn) [700,980] | 2 | > 32 µg/mL | <=0.5
CCc1[nH]c2nc(Oc3cncc(C#N)c3)nc(N3CC4C(C3)C4(N)C(N)=O)c2c1Cl (stereo not drawn) [700,981] | 16 | > 32 µg/mL | 16
CCc1[nH]c2nc(Oc3cncc(OC)c3)nc(Oc3cccc(C#N)c3)c2c1Br [700,982] | <=0.5 | > 64 µg/mL | <=0.5
CCc1[nH]c2nc(Sc3ccc4c(N5CCC(N)CC5)nc(C)nc4c3)nc(N3CC[C@@H](N)C3)c2c1Cl [700,983] | 32 | 32 µg/mL (≈ 59.5 µM) | 32
CCc1[nH]c2nc(Sc3ccc4c(N5CCC(N)CC5)nc(C)nc4c3)nc(N3CC4C(N)C4C3)c2c1Cl (stereo not drawn) [700,984] | 8 | 8 µg/mL (≈ 14.5 µM) | 4
CCc1[nH]c2nc(Sc3cnc4nccnc4c3)nc(N3CCC4(CC4N)C3)c2c1Cl (stereo not drawn) [700,986] | 2 | 64 µg/mL (≈ 141 µM) | 1
CCc1[nH]c2nc(Oc3ccc4nccnc4c3)nc(Oc3cncc(C#N)c3)c2c1Br [700,987] | <=0.5 | > 64 µg/mL | <=0.5
CCc1[nH]c2nc(Oc3ccc4nccnc4c3)nc(Oc3cnc4c(c3)ncn4C)c2c1Br [700,988] | <=0.5 | > 64 µg/mL | <=0.5
CCc1[nH]c2nc(Oc3ccc4nccnc4c3)nc(N3CC4C(C3)C4(N)C(N)=O)c2c1Cl (stereo not drawn) [700,989] | <=0.5 | > 64 µg/mL | <=0.5
CCc1[nH]c2nc(Sc3ccc4cc5c([n+]([O-])c4c3)CCNC5)nc(N3CCc4nc(N)sc4C3)c2c1Cl [700,990] | 16 | > 64 µg/mL | 1
CCc1[nH]c2nc(Sc3ccc4cccnc4c3)nc(N3CC[C@@H](N)C3)c2c1Cl [700,991] | 2 | 32 µg/mL (≈ 75.3 µM) | 1
CCc1[nH]c2nc(Sc3ccc4cccnc4c3)nc(N3CC4C(N)C4C3)c2c1Cl (stereo not drawn) [700,992] | <=0.5 | > 64 µg/mL | <=0.5
CCc1[nH]c2nc(Sc3ccc4ccc[n+]([O-])c4c3)nc(N3CC[C@@H](N)C3)c2c1Cl [700,993] | 2 | 16 µg/mL (≈ 36.3 µM) | <=0.5
CCc1[nH]c2nc(Sc3ccc4ccc[n+]([O-])c4c3)nc(N3CC4C(N)C4C3)c2c1Cl (stereo not drawn) [700,994] | <=0.5 | 8 µg/mL (≈ 17.7 µM) | <=0.5
NC1CN(c2ncnc3cc(Sc4nc(N5CC[C@@H](N)C5)c5c(Cl)c(C6CC6)[nH]c5n4)ccc23)C1 [700,995] | >64 | 64 µg/mL (≈ 126 µM) | >64
CCc1[nH]c2nc(Oc3cnc4c(c3)ncn4C)nc(Oc3cncc(C#N)c3)c2c1Br [700,996] | <=0.5 | > 64 µg/mL | <=0.5
CCc1[nH]c2nc(Oc3ccc4nccnc4c3)nc(Oc3ccc4c(c3)ncn4C)c2c1Br [700,998] | 1 | > 64 µg/mL | <=0.5
